CN(C)CCNc1nc2ccc3c(c2[n+]([O-])n1)CCC3 [Compound 6, N^1,N^1-Dimethyl-N^2-(1-oxido-8,9-dihydro-7H-indeno[5,4-e][1,2,4]triazin-3-yl)-1,2-ethanediamine]
melting point: 186 to 190 °C

CCN(CC)CCNc1nc2ccc3c(c2[n+]([O-])n1)CCC3 [Compound 8, N^1,N^1-Diethyl-N^2-(1-oxido-8,9-dihydro-7H-indeno[5,4-e][1,2,4]triazin-3-yl)-1,2-ethanediamine]
melting point: 126 to 130 °C

CCCN(CCC)CCNc1nc2ccc3c(c2[n+]([O-])n1)CCC3 [Compound 10, N^1-(1-Oxido-8,9-dihydro-7H-indeno[5,4-e][1,2,4]triazin-3-yl)-N^2,N^2-dipropyl-1,2-ethanediamine]
melting point: 148 to 151 °C

[O-][n+]1nc(NCCN2CCCCC2)nc2ccc3c(c21)CCC3 [Compound 12, N-[2-(1-Piperidinyl)ethyl]-8,9-dihydro-7H-indeno[5,4-e][1,2,4]triazin-3-amine 1-Oxide]
melting point: 152 to 155 °C

Nc1nc2cc3c(cc2[n+]([O-])n1)CCC3 [Compound 19, 7,8-Dihydro-6H-indeno[5,6-e][1,2,4]triazin-3-amine 1-Oxide]
melting point: 270 to 272 °C

CN(C)CCNc1nc2cc3c(cc2[n+]([O-])n1)CCC3 [Compound 22, N^1,N^1-Dimethyl-N^2-(1-oxido-7,8-dihydro-6H-indeno[5,6-e][1,2,4]triazin-3-yl)-1,2-ethanediamine]
melting point: 122 to 124 °C

[O-][n+]1nc(NCCO)nc2cc3c(cc21)CCC3 [Compound 24, 2-[(1-Oxido-7,8-dihydro-6H-indeno[5,6-e][1,2,4]triazin-3-yl)amino]ethanol]
melting point: 222 to 224 °C

CCN(CC)CCNc1nc2cc3c(cc2[n+]([O-])n1)CCC3 [Compound 26, N^1-(1-Oxido-7,8-dihydro-6H-indeno[5,6-e][1,2,4]triazin-3-yl)-N^2,N^2-diethyl-1,2-ethanediamine]
melting point: 109 to 112 °C

CCCN(CCC)CCNc1nc2cc3c(cc2[n+]([O-])n1)CCC3 [Compound 28, N^1-(1-Oxido-7,8-dihydro-6H-indeno[5,6-e][1,2,4]triazin-3-yl)-N^2,N^2-dipropyl-1,2-ethanediamine]
melting point: 95 to 97 °C

COCCN(C)CCNc1nc2cc3c(cc2[n+]([O-])n1)CCC3 [Compound 30, N^1-(1-Oxido-7,8-dihydro-6H-indeno[5,6-e][1,2,4]triazin-3-yl)-N^2-(2-methoxyethyl)-N^2-methyl-1,2-ethanediamine]
melting point: 107 to 110 °C

COCCCN(C)CCNc1nc2cc3c(cc2[n+]([O-])n1)CCC3 [Compound 32, N^1-(3-Methoxypropyl)-N^1-methyl-N^2-(1-oxido-7,8-dihydro-6H-indeno[5,6-e][1,2,4]triazin-3-yl)-1,2-ethanediamine]
melting point: 41 to 42 °C

COC1CN(CCNc2nc3cc4c(cc3[n+]([O-])n2)CCC4)C1 [Compound 34, N-[2-(3-Methoxy-1-azetidinyl)ethyl]-7,8-dihydro-6H-indeno[5,6-e][1,2,4]triazin-3-amine 1-Oxide]
melting point: 139 to 141 °C

[O-][n+]1nc(NCCN2CCCCC2)nc2cc3c(cc21)CCC3 [Compound 36, N-[2-(1-Piperidinyl)ethyl]-7,8-dihydro-6H-indeno[5,6-e][1,2,4]triazin-3-amine 1-Oxide]
melting point: 151 to 153 °C

CC1CCCC(C)N1CCNc1nc2cc3c(cc2[n+]([O-])n1)CCC3 (stereo not shown) [Compound 38, N-[2-(2,6-Dimethyl-1-piperidinyl)ethyl]-7,8-dihydro-6H-indeno[5,6-e][1,2,4]triazin-3-amine 1-Oxide]
melting point: 173 to 175 °C

COC1CCCN(CCNc2nc3cc4c(cc3[n+]([O-])n2)CCC4)C1 (stereo not shown) [Compound 40, N-[2-(3-Methoxy-1-piperidinyl)ethyl]-7,8-dihydro-6H-indeno[5,6-e][1,2,4]triazin-3-amine 1-Oxide]
melting point: 123 to 124 °C

COC1CCN(CCNc2nc3cc4c(cc3[n+]([O-])n2)CCC4)CC1 [Compound 42, N-[2-(4-Methoxy-1-piperidinyl)ethyl]-7,8-dihydro-6H-indeno[5,6-e][1,2,4]triazin-3-amine 1-Oxide]
melting point: 131 to 133 °C

[O-][n+]1nc(NCCN2CCOCC2)nc2cc3c(cc21)CCC3 [Compound 44, N-[2-(4-Morpholinyl)ethyl]-7,8-dihydro-6H-indeno[5,6-e][1,2,4]triazin-3-amine 1-Oxide]
melting point: 178 to 179 °C

[O-][n+]1nc(NCCN2CCCCCC2)nc2cc3c(cc21)CCC3 [Compound 46, N-[2-(1-Azepanyl)ethyl]-7,8-dihydro-6H-indeno[5,6-e][1,2,4]triazin-3-amine 1-Oxide]
melting point: 121 to 123 °C

[O-][n+]1nc(NCCN2CCCOCC2)nc2cc3c(cc21)CCC3 [Compound 48, N-[2-(1,4-Oxazepan-4-yl)ethyl]-7,8-dihydro-6H-indeno[5,6-e][1,2,4]triazin-3-amine 1-Oxide]
melting point: 119 to 120 °C

[O-][n+]1nc(NCCCO)nc2cc3c(cc21)CCC3 [Compound 50, 3-[(1-Oxido-7,8-dihydro-6H-indeno[5,6-e][1,2,4]triazin-3-yl)amino]-1-propanol]
melting point: 190 to 190.5 °C

COCCN(C)CCCNc1nc2cc3c(cc2[n+]([O-])n1)CCC3 [Compound 52, N^1-(2-Methoxyethyl)-N^1-methyl-N^3-(1-oxido-7,8-dihydro-6H-indeno[5,6-e][1,2,4]triazin-3-yl)-1,3-propanediamine]
melting point: 59 to 61 °C

COC1CN(CCCNc2nc3cc4c(cc3[n+]([O-])n2)CCC4)C1 [Compound 54, N-[3-(3-Methoxy-1-azetidinyl)propyl]-7,8-dihydro-6H-indeno[5,6-e][1,2,4]triazin-3-amine 1-Oxide]
melting point: 101 to 102 °C

N#CC1CCN(CCCNc2nc3cc4c(cc3[n+]([O-])n2)CCC4)C1 (stereo not shown) [Compound 56, 1-{3-[(1-Oxido-7,8-dihydro-6H-indeno[5,6-e][1,2,4]triazin-3-yl)amino]propyl}-3-pyrrolidinecarbonitrile]
melting point: 111 to 112 °C

COC1CCN(CCCNc2nc3cc4c(cc3[n+]([O-])n2)CCC4)CC1 [Compound 58, N-[3-(4-Methoxy-1-piperidinyl)propyl]-7,8-dihydro-6H-indeno[5,6-e][1,2,4]triazin-3-amine 1-Oxide]
melting point: 120 to 121 °C

[O-][n+]1nc(NCCCN2CCOCC2)nc2cc3c(cc21)CCC3 [Compound 60, N-[3-(4-Morpholinyl)propyl]-7,8-dihydro-6H-indeno[5,6-e][1,2,4]triazin-3-amine 1-Oxide]
melting point: 139 to 141 °C

[O-][n+]1nc(NCCCCN2CCOCC2)nc2cc3c(cc21)CCC3 [Compound 62, N-[4-(4-Morpholinyl)butyl]-7,8-dihydro-6H-indeno[5,6-e][1,2,4]triazin-3-amine 1-Oxide]
melting point: 151 to 152 °C

[O-][n+]1ncnc2cc3c(cc21)CCC3 [Compound 64, 7,8-Dihydro-6H-indeno[5,6-e][1,2,4]triazine 1-Oxide]
melting point: 130 to 131 °C

C=CCc1nc2cc3c(cc2[n+]([O-])n1)CCC3 [Compound 69, 3-Allyl-7,8-dihydro-6H-indeno[5,6-e][1,2,4]triazine 1-Oxide]
melting point: 60 to 61 °C

[O-][n+]1nc(CCCO)nc2cc3c(cc21)CCC3 [Compound 70, 3-(1-Oxido-7,8-dihydro-6H-indeno[5,6-e][1,2,4]triazin-3-yl)-1-propanol]
melting point: 131 to 133 °C

CC(C)(C)OP(=O)(OCCCc1n[n+]([O-])c2cc3c(cc2[n+]1[O-])CCC3)OC(C)(C)C [Compound 73, 3-(3-(Di-tert-butoxyphosphoryloxy)propyl)-7,8-dihydro-6H-indeno[5,6-e][1,2,4]triazine 1,4-Dioxide]
melting point: 129 to 131 °C

O=CCCc1nc2cc3c(cc2[n+]([O-])n1)CCC3 [Compound 75, 3-(1-oxido-7,8-dihydro-6H-indeno[5,6-e][1,2,4]triazin-3-yl)propanal]
melting point: 72 to 74 °C

CC1Cc2cc3nc(N)n[n+]([O-])c3cc2C1 (stereo not shown) [Compound 94, 7-Methyl-7,8-dihydro-6H-indeno[5,6-e][1,2,4]triazin-3-amine 1-Oxide]
melting point: 275 to 277 °C

CC1Cc2cc3nc(NCCN(C)C)n[n+]([O-])c3cc2C1 (stereo not shown) [Compound 96, N^1,N^1-Dimethyl-N^2-(7-methyl-1 oxido-7,8-dihydro-6H-indeno[5,6-e][1,2,4]triazin-3-yl)-1,2-ethanediamine]
melting point: 119 to 121 °C

CC1Cc2cc3nc(NCCCN4CCOCC4)n[n+]([O-])c3cc2C1 (stereo not shown) [Compound 98, 7-Methyl-N-[3-(4-morpholinyl)propyl]-7,8-dihydro-6H-indeno[5,6-e][1,2,4]triazin-3-amine 1-Oxide]
melting point: 138 to 140 °C

CC1Cc2cc3nc(I)n[n+]([O-])c3cc2C1 (stereo not shown) [Compound 100, 3-Iodo-7-methyl-7,8-dihydro-6H-indeno[5,6-e][1,2,4]triazine 1-Oxide]
melting point: 140 to 142 °C

CC1Cc2cc3nc(CCCN4CCOCC4)n[n+]([O-])c3cc2C1 (stereo not shown) [Compound 102, 7-Methyl-3-[3-(4-morpholinyl)propyl]-7,8-dihydro-6H-indeno[5,6-e][1,2,4]triazine 1-Oxide]
melting point: 70 to 71 °C

CN(C)C1Cc2cc3nc(N)n[n+]([O-])c3cc2C1 (stereo not shown) [Compound 111, N^7,N^7-Dimethyl-7,8-dihydro-6H-indeno[5,6-e][1,2,4]triazine-3,7-diamine 1-Oxide]
melting point: 212 to 216 °C

CCNc1nc2cc3c(cc2[n+]([O-])n1)CC(N(C)C)C3 (stereo not shown) [Compound 113, N^3-Ethyl-N^7,N^7-dimethyl-7,8-dihydro-6H-indeno[5,6-e][1,2,4]triazine-3,7-diamine 1-Oxide]
melting point: 187 to 190 °C

Nc1nc2cc3c(cc2[n+]([O-])n1)CC(CO)C3 (stereo not shown) [Compound 124, (3-Amino-1-oxido-7,8-dihydro-6H-indeno[5,6-e][1,2,4]triazin-7-yl)methanol]
melting point: 255 to 257 °C

CCNc1nc2cc3c(cc2[n+]([O-])n1)CC(CO)C3 (stereo not shown) [Compound 126, [3-(Ethylamino)-1-oxido-7,8-dihydro-6H-indeno[5,6-e][1,2,4]triazin-7-yl]methanol]
melting point: 150 °C
